Assay results reported in patent publication US20020061599A1, “Method of identifying ligands of biological target molecules” (priority 1999, published 2002).
“Also recorded” adds a separate entry of the source. Each block holds one molecule with its values, some of them ahead of it.

How the values were obtained:
galanin R1 receptor = target: T1, galanin R1 receptor (Homo sapiens, UniProt P47211); test: Whole cell competition binding with [125I]-galanin in COS-7 cells expressing galanin receptor; settings: for binding affinity compared with the basic chelator 1,10-phenanthroline: chelator in complex with Cu(II)
T1 construct: expressed in transfected cells; host or cells: COS-7
T1 sequence (P47211 1-349): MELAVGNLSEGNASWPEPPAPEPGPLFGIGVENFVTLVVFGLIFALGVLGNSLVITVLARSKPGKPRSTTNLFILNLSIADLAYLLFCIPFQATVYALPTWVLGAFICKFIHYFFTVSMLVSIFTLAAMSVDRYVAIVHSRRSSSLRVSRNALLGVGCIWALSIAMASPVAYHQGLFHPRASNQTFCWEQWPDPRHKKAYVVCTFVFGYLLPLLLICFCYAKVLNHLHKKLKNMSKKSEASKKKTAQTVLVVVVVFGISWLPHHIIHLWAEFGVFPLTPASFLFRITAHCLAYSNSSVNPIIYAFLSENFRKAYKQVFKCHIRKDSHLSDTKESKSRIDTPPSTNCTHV
From the text: Whole cell competition binding experiment with COS-7 cells expressing the wild type and mutant forms of the galanin receptor using [^125I]-galanin as radioligand.
Methods—The galanin receptor cDNA was introduced into COS-7 cells by the standard calcium phosphate transfection method. The cells were transferred and seeded in multi-well plates for assay one day following the transfection and the number of cells plated per well was adjusted for each individual (wild type and mutant) construct aiming at the binding of 5 to 10% of the radioligand present in the assay. Two days post-transfection the cells were assayed for the presence of [^125]-Galanin binding activity. Radioligand was bound in buffer composed of 25 mM Hepes (pH 7.4), 2.5 mM MgCl2, […] Baciacin and displaced in a dose dependent manner by unlabelled ligand. The assay was performed in triplicate for 3 hours at 4° C., and terminated by the addition of lysis buffer (48% urea, 2% NP-40 in 3M acetic acid). The concentration of radioligand in the assay corresponds to a final concentration of 20 pM.

[1] = target: T2, NK1 receptor [HisV:05,HisVI:24] (Homo sapiens, UniProt P25103, Y272H); test: Competition binding with [125I]-Substance P, NK1 receptor [HisV:05,HisVI:24] site; settings: all in complex with Zn(II)
T2 construct: expressed in transfected cells; host or cells: COS-7
T2 sequence (P25103 whole entry Y272H): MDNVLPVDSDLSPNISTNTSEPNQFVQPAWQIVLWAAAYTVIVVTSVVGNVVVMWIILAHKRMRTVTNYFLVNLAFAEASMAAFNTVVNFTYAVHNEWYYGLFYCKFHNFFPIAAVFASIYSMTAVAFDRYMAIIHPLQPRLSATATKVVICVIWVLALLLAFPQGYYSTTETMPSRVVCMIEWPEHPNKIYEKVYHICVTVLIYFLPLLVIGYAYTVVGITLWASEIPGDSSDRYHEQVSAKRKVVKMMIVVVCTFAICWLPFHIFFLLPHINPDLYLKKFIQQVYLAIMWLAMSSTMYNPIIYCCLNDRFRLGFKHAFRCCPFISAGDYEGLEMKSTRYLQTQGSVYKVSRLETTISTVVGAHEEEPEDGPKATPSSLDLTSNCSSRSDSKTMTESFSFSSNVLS
Experimental: (§1) Binding of [^125I]-Substance P was analysed in COS-7 cells expressing NK1 receptor which have been engineered to bind the zinc metal-ion. Ligand binding is presented in competiton with the zinc metal-ion, the zinc-1,10-phenanthroline complex and with other zinc-chelator complexes as indicated. For structures of the chelators, see Appendix.

[2] = target: T3, leukotriene LTB4 receptor (Homo sapiens, UniProt Q15722); test: Whole cell competition binding with [3H]-LTB4 in COS-7 cells expressing wild type LTB4 receptor
T3 construct: expressed in transfected cells; host or cells: COS-7
T3 sequence (Q15722 whole entry): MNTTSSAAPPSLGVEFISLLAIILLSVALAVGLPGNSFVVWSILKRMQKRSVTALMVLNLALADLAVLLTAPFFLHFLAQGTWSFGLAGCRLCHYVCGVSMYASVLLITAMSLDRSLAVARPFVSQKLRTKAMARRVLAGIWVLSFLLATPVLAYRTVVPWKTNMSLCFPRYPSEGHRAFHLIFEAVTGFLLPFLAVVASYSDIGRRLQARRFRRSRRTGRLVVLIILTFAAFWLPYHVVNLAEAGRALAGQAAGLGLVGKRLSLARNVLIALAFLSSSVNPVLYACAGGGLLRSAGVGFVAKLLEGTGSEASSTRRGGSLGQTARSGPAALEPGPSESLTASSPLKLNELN
From the text: Whole cell competition binding experiment with COS-7 cells expressing the wild type and mutant variants of the leukotriene LTB4 receptor using [^3H]-LTB4 as the radioligand.
Methods—The leukotriene LTB4 receptor cDNA was cloned by PCR from a leukocyte cDNA library, built into an eukaryotic expression vector and introduced into COS-7 cells by a standard calcium phosphate transfection method. One day after transfection the cells were transferred and seeded in multi-well plates for assay. The number of cells plated per well was chosen so as to obtain 5 to 10% binding of the radioligand added. Two days after transfection the cells were assayed for the presence of [^3H]-LTB4 binding activity. […] The assay was performed in duplicate for 3 hours at 4° C., and stopped by washing twice in buffer. Cell associated, receptor bound radioligand was determined by the addition of lysis buffer (48% urea, 2% NP-40 in 3M acetic acid).

[3] = target: T4, NK1 receptor [HisIII:08;CysVII:06] (Homo sapiens, UniProt P25103, M291C/P112H); test: Competition binding with [125I]-Substance P, NK1 receptor [HisIII:08;CysVII:06] site; settings: all in complex with Zn(II)
T4 construct: expressed in transfected cells; host or cells: COS-7
T4 sequence (P25103 whole entry P112H/M291C): as the sequence (P25103 whole entry Y272H) above, with P112H, H272Y, M291C counted along it
Experimental: as §1

Factor VIIa (FVIIa) = target: T5, Factor VIIa (FVIIa) (Homo sapiens, UniProt P08709); test: Amidolytic activity of Factor VIIa; format: biochemical; settings: for effect on the activity of FVIIa: chelator without metal-ions
T5 construct: Factor VIIa, i.e. the active form of the FVII protease involved in the coagulation cascade; purchased American Diagnostica
T5 sequence (P08709 213-466 limits assumed): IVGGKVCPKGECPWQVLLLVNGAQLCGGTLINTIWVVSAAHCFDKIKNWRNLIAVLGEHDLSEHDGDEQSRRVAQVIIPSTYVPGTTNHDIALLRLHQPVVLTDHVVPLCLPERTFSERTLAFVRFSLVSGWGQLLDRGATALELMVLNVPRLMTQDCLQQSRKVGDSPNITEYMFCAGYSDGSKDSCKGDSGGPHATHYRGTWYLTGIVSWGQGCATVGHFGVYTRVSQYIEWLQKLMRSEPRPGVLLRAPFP
T5 sequence (P08709 61-212 partner limits assumed): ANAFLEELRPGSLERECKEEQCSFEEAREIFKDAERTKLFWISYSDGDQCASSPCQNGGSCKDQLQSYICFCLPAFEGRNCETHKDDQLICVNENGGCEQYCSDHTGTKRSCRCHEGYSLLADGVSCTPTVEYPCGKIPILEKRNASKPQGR
Experimental: Method—The amidolytic activity of Factor VIIa (FVIIa) was measured by the incubation of 2.5 μl FVIIa (100 nM final concentration, obtained from American Diagnostica), 2.5 μl ligand and 4 μl substrate (10 mM, S2288 obtained from Chromogenix) in 42.5 μl buffer (50 mM Hepes pH 7.4, 1 mM CaCl2, 100 mM NaCl, 0,02% Tween 20). The assay was performed in 96-well plates (Costar). Incubation was performed at room temperature for five hours with absorbance read every 10 minutes.

dopamine transporter = target: T6, dopamine transporter (Homo sapiens, UniProt Q01959); test: [3H]-dopamine uptake in COS-7 cells expressing wild-type dopamine transporter; format: cell-based; settings: for effect on dopamine transport: chelator by itself, without metal-ion
T6 construct: expressed in transfected cells; host or cells: COS-7
T6 sequence (Q01959 whole entry): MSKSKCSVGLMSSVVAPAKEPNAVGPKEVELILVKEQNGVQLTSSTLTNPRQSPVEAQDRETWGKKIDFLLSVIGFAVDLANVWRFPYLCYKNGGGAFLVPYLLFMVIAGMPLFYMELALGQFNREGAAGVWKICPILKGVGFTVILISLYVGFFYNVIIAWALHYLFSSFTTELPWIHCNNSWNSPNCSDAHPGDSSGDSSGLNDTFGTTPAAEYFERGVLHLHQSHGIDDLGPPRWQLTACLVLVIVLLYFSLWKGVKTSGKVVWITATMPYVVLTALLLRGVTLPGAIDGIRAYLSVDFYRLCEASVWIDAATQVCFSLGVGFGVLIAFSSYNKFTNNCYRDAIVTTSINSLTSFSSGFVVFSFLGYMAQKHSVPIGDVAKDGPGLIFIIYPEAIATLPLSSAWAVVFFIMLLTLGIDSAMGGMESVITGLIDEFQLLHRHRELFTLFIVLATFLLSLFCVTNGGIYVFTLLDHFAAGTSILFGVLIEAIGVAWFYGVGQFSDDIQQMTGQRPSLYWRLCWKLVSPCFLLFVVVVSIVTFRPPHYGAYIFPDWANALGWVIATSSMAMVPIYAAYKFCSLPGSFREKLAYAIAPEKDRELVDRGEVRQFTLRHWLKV
Experimental: Competition analysis of uptake of [^3H]-dopamine in whole COS-7 cells expressing the dopamine transporter.
(§2) Methods—The dopamine transporter cDNA was introduced into COS-7 by the standard calcium phosphate transfection method. Two days post-transfection the cells were assayed for [^3H]-Dopamine uptake activity. The uptake assays was performed in 25 mM Hepes pH 7.4, 120 mM NaCl, 5 mM KCl, 1.2 mM CaCl2, 1.2 mM MgSO4, 1 mM ascorbic acid and 5 mM D-glucose and in the presence of various concentrations of unlabelled dopamine as indicated in the figures. The assay was performed in triplicate at 37° C. for 10 minutes, and terminated by washing with buffer twice and the addition of lysis buffer (48% urea, 2% NP-40 in 3M acetic acid).

[4] = target: T7, [H193K] dopamine transporter (Homo sapiens, UniProt Q01959, H193K); test: [3H]-dopamine uptake in COS-7 cells, [H193K] mutant dopamine transporter; format: cell-based; settings: mutational substitution of His193; chelator in complex with Zn(II)
T7 construct: expressed in transfected cells; host or cells: COS-7
T7 sequence (Q01959 whole entry H193K): as the sequence (Q01959 whole entry) above, with H193K counted along it
Experimental: Panel B. Dopamine uptake analysis in a mutant form of the dopamine transporter, [H193K], in which binding of the metal-ion complex has been eliminated (Noregaard et al. EMBO J. (1998) 17: 4266-4273).
as §2

[5] = tested on: metal-ion site engineered tachykinin NK1 receptors; test: Competition binding with [125I]-Substance P, library of inter-helical metal-ion sites engineered into NK1 receptor; settings: sites between TM-III and -V and between TM-V and -VI
Experimental: COS-7 cells expressing various engineered forms of the NK1 receptor were analyzed by competition binding using [^125I]-Substance P as radioligand

binding affinity compared with the basic chelator 1,10-phenanthroline (galanin R1 receptor): bound like 1,10′-phenanthroline | potency compared with phenanthroline [1]: only slightly more potent | potency, fold more potent than phenanthroline [3]: 7 fold
Structure (SMILES): c1ccc(-c2cc3cccnc3c3ncccc23)cc1 [compound 134, 5-phenyl-1,10-phenanthroline]
binding of the metal-ion chelator complex compared with 1,10-phenanthroline ([2]; chelator in complex with Cu(II)): entirely eliminated the binding; also recorded: totally inactive

effect of the metal-ion chelator complex on dopamine transport [4]: eliminated | effect on dopamine transport (dopamine transporter): does not affect | potency of blocking dopamine transport, fold higher than free Zn(II) (dopamine transporter; chelator in complex with Zn(II), mono-component): approx 10 fold
Structure (SMILES): CC(=O)O/N=C(\N)c1ccccn1 [compound 210, 2-pyridylamidoxime, O-acetyl]

binding, fold better than 1,10-phenanthroline [1]: 10 fold | binding compared with 1,10′-phenanthroline [3]: almost similar
Structure (SMILES): O=C1C(=O)c2cccnc2-c2ncccc21 [compound 175, 1,10-phenanthroline-5,6-dione]

potency of inhibiting FVIIa compared with the basic chelator complex (Factor VIIa (FVIIa); chelator in complex with Zn(II)): increased potency | binding, fold better than 1,10-phenanthroline [1]: 6 fold | binding compared with 1,10′-phenanthroline [3]: almost similar
Structure (SMILES): ClC(Cl)(Cl)c1ccc2ccc3ccc(C(Cl)(Cl)Cl)nc3c2n1 [compound 135, 2,9-bis(trichloromethyl)-1,10-phenanthroline]

binding affinity compared with the basic chelator 1,10-phenanthroline (galanin R1 receptor): increase the binding affinity
Structure (SMILES): Cc1cc2cccnc2c2ncccc12 [compound 176, 5-methyl-1,10-phenanthroline]

Second part, the molecule before the results:

Structure (SMILES): c1cnc2c(c1)ccc1cccnc12 [1,10-phenanthroline, reference compound]
effect on [125I]-galanin binding (galanin R1 receptor; chelator alone, without metal-ion): no effect | effect on the activity of FVIIa (Factor VIIa (FVIIa)): no effect

Structure (SMILES): c1ccc(-c2ccccn2)nc1 [2,2′-bipyridine, reference compound]
effect on the activity of FVIIa (Factor VIIa (FVIIa)): no effect | effect on dopamine transport (dopamine transporter): no effect

Structure (SMILES): [Cl][Cu][Cl] [Cu(II), reference compound]
Hill coefficient (galanin R1 receptor; displacement of [125I]-galanin): −4 | increase in affinity versus wild-type [5]: no increase or just a marginal increase in affinity | IC50 ([2]; wild type receptor, whole COS-7 cells, read-out: IC50, displacement of [3H]-LTB4): 70 µM

Structure (SMILES): OCc1ccc2ccc3ccc(CO)nc3c2n1 [compound 133, 2,9-dimethanol-1,10-phenanthroline]
binding affinity compared with the basic chelator 1,10-phenanthroline (galanin R1 receptor): decrease the affinity
